In ChEMBL document CHEMBL1146393, “Coriaheptocins A and B, the First Heptahydroxylated Acetogenins, Isolated from the Roots of Annona coriacea 1” (1997):
≈ marks a conversion by molar mass, not a printed value.

What follows are molecules tested on KB (assay: Cytotoxicity against human KB cells). Details: read-out: ED50 (the source's name).
Type: functional

Q: `CCCCCCCCCCCC[C@@H](O)[C@H](O)CC[C@H](O)C[C@@H](O)C[C@H](O)[C@@H]1CC[C@@H]([C@H](O)CC[C@@H](O)CC2=C[C@H](C)OC2=O)O1` [CORIAHEPTOCIN A] was tested. Which EC50 did it give?
A: The EC50 was 0.63 µg/mL (≈ 0.977 µM).

Q: How did the EC50 turn out when `CCCCCCCCCCCC[C@@H](O)[C@H](O)CC[C@H](O)C[C@@H](O)C[C@H](O)[C@@H]1CC[C@H]([C@H](O)CC[C@@H](O)CC2=C[C@H](C)OC2=O)O1` [CORIAHEPTOCIN B] was run?
A: The EC50 was 0.18 µg/mL (≈ 0.279 µM).

Q: With `CC(=O)O[C@H]1C(=O)[C@@]2(C)[C@H]([C@H](OC(=O)c3ccccc3)[C@]3(O)C[C@H](OC(=O)[C@H](O)[C@@H](NC(=O)c4ccccc4)c4ccccc4)C(C)=C1C3(C)C)[C@]1(OC(C)=O)CO[C@@H]1C[C@@H]2O` [PACLITAXEL] as the molecule, how does the EC50 read?
A: The EC50 was 0.02 µg/mL (≈ 0.0234 µM).
